Source: BigSolDB 2.1

CC(N)=S
Conditions	solubility (mole fraction)
in 2-butanone, 272.85 K	0.137
in 2-butanone, 279.35 K	0.157
in 2-butanone, 282.55 K	0.167
in 2-butanone, 287.95 K	0.185
in 2-butanone, 293.35 K	0.205
in 2-butanone, 297.85 K	0.223
in 2-butanone, 303.05 K	0.244
in 2-butanone, 308.55 K	0.268
in 2-butanone, 313.15 K	0.289
in 2-butanone, 318.05 K	0.312
in 2-butanone, 323.95 K	0.343
in 2-pentanone, 272.85 K	0.111
in 2-pentanone, 279.35 K	0.127
in 2-pentanone, 282.55 K	0.136
in 2-pentanone, 287.95 K	0.152
in 2-pentanone, 293.35 K	0.169
in 2-pentanone, 297.85 K	0.183
in 2-pentanone, 303.05 K	0.202
in 2-pentanone, 308.55 K	0.222
in 2-pentanone, 313.15 K	0.24
in 2-pentanone, 318.05 K	0.26
in 2-pentanone, 323.95 K	0.286
in acetone, 272.85 K	0.144
in acetone, 279.35 K	0.165
in acetone, 282.55 K	0.176
in acetone, 287.95 K	0.195
in acetone, 293.35 K	0.216
in acetone, 297.85 K	0.234
in acetone, 303.05 K	0.257
in acetone, 308.55 K	0.282
in acetone, 313.15 K	0.304
in acetone, 318.05 K	0.329
in acetone, 323.95 K	0.36
in acetonitrile, 272.85 K	0.0478
in acetonitrile, 279.35 K	0.061
in acetonitrile, 282.55 K	0.0685
in acetonitrile, 287.95 K	0.0828
in acetonitrile, 293.35 K	0.0993
in acetonitrile, 297.85 K	0.115
in acetonitrile, 303.05 K	0.136
in acetonitrile, 308.55 K	0.16
in acetonitrile, 313.15 K	0.184
in acetonitrile, 318.05 K	0.211
in acetonitrile, 323.95 K	0.249
in ethanol, 273.15 K	0.064
in ethanol, 277.95 K	0.0752
in ethanol, 283.45 K	0.0901
in ethanol, 288.25 K	0.105
in ethanol, 293.25 K	0.122
in ethanol, 298.15 K	0.141
in ethanol, 302.35 K	0.159
in ethanol, 308.05 K	0.186
in ethanol, 313.35 K	0.214
in ethanol, 318.25 K	0.243
in ethanol, 323.15 K	0.274
in ethyl acetate, 272.85 K	0.0646
in ethyl acetate, 279.35 K	0.0773
in ethyl acetate, 282.55 K	0.0843
in ethyl acetate, 287.95 K	0.0969
in ethyl acetate, 293.35 K	0.111
in ethyl acetate, 297.85 K	0.124
in ethyl acetate, 303.05 K	0.14
in ethyl acetate, 308.55 K	0.158
in ethyl acetate, 313.15 K	0.175
in ethyl acetate, 318.05 K	0.194
in ethyl acetate, 323.95 K	0.219
in ethyl formate, 272.85 K	0.0427
in ethyl formate, 279.35 K	0.0536
in ethyl formate, 282.55 K	0.0596
in ethyl formate, 287.95 K	0.0711
in ethyl formate, 293.35 K	0.0843
in ethyl formate, 297.85 K	0.0965
in ethyl formate, 303.05 K	0.113
in ethyl formate, 308.55 K	0.131
in ethyl formate, 313.15 K	0.149
in ethyl formate, 318.05 K	0.17
in ethyl formate, 323.95 K	0.198
in isobutanol, 273.15 K	0.0323
in isobutanol, 277.95 K	0.0401
in isobutanol, 283.45 K	0.0508
in isobutanol, 288.25 K	0.0621
in isobutanol, 293.25 K	0.0761
in isobutanol, 298.15 K	0.0922
in isobutanol, 302.35 K	0.108
in isobutanol, 308.05 K	0.133
in isobutanol, 313.35 K	0.16
in isobutanol, 318.25 K	0.189
in isobutanol, 323.15 K	0.223
in isopentanol, 273.15 K	0.0333
in isopentanol, 277.95 K	0.0415
in isopentanol, 283.45 K	0.0528
in isopentanol, 288.25 K	0.0648
in isopentanol, 293.25 K	0.0796
in isopentanol, 298.15 K	0.0968
in isopentanol, 302.35 K	0.114
in isopentanol, 308.05 K	0.141
in isopentanol, 313.35 K	0.171
in isopentanol, 318.25 K	0.203
in isopentanol, 323.15 K	0.239
in isopropanol, 273.15 K	0.0439
in isopropanol, 277.95 K	0.0532
in isopropanol, 283.45 K	0.066
in isopropanol, 288.25 K	0.0792
in isopropanol, 293.25 K	0.0949
in isopropanol, 298.15 K	0.113
in isopropanol, 302.35 K	0.13
in isopropanol, 308.05 K	0.158
in isopropanol, 313.35 K	0.186
in isopropanol, 318.25 K	0.216
in isopropanol, 323.15 K	0.251
in methanol, 273.15 K	0.0894
in methanol, 277.95 K	0.104
in methanol, 283.45 K	0.123
in methanol, 288.25 K	0.141
in methanol, 293.25 K	0.163
in methanol, 298.15 K	0.186
in methanol, 302.35 K	0.208
in methanol, 308.05 K	0.241
in methanol, 313.35 K	0.275
in methanol, 318.25 K	0.31
in methanol, 323.15 K	0.348
in methyl acetate, 272.85 K	0.0603
in methyl acetate, 279.35 K	0.074
in methyl acetate, 282.55 K	0.0815
in methyl acetate, 287.95 K	0.0957
in methyl acetate, 293.35 K	0.112
in methyl acetate, 297.85 K	0.126
in methyl acetate, 303.05 K	0.145
in methyl acetate, 308.55 K	0.167
in methyl acetate, 313.15 K	0.187
in methyl acetate, 318.05 K	0.211
in methyl acetate, 323.95 K	0.242
in n-butanol, 273.15 K	0.0417
in n-butanol, 277.95 K	0.0524
in n-butanol, 283.45 K	0.0674
in n-butanol, 288.25 K	0.0833
in n-butanol, 293.25 K	0.103
in n-butanol, 298.15 K	0.126
in n-butanol, 302.35 K	0.149
in n-butanol, 308.05 K	0.186
in n-butanol, 313.35 K	0.227
in n-butanol, 318.25 K	0.271
in n-butanol, 323.15 K	0.321
in n-pentanol, 273.15 K	0.0507
in n-pentanol, 277.95 K	0.0598
in n-pentanol, 283.45 K	0.0716
in n-pentanol, 288.25 K	0.0835
in n-pentanol, 293.25 K	0.0975
in n-pentanol, 298.15 K	0.113
in n-pentanol, 302.35 K	0.127
in n-pentanol, 308.05 K	0.149
in n-pentanol, 313.35 K	0.172
in n-pentanol, 318.25 K	0.196
in n-pentanol, 323.15 K	0.222
in n-propanol, 273.15 K	0.0503
in n-propanol, 277.95 K	0.0608
in n-propanol, 283.45 K	0.0748
in n-propanol, 288.25 K	0.0891
in n-propanol, 293.25 K	0.106
in n-propanol, 298.15 K	0.126
in n-propanol, 302.35 K	0.144
in n-propanol, 308.05 K	0.173
in n-propanol, 313.35 K	0.203
in n-propanol, 318.25 K	0.236
in n-propanol, 323.15 K	0.272
